Results: the supplement of paper PMC10307832

Assays:
Experiment in all cases: relative viability (nuclei count vs DMSO), 5 days (fraction); higher = more cells survive
HCC-78 = test system: HCC-78
Outline: (§1)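 After 5 days of treatment, lung cancer cells in 1536-well plates were fixed and stained in a single step (final 0.05% Triton X-100, 1% formaldehyde, 1 ug/ml Hoechst) and their nuclei counted on 4× images. Treatment had been applied by pin tool the day after seeding as one drug alone or as a fixed anchor-drug dose with five library-drug doses (not always all listed) in √10 steps. Relative viability is the nuclei count of treated wells divided by that of vehicle wells, and values are medians of duplicate plates.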

SW 1573 = test system: SW 1573
Outline: as §1

RERF-LC-KJ = test system: RERF-LC-KJ
Outline: as §1

NCI-H1755 = test system: NCI-H1755
Outline: as §1

NCI-H1975 = test system: NCI-H1975
Outline: as §1

NCI-H2347 = test system: NCI-H2347
Outline: as §1

PC-3 [JPC-3] = test system: PC-3 [JPC-3]
Outline: as §1

NCI-H2126 = test system: NCI-H2126
Outline: as §1

NCI-H647 = test system: NCI-H647
Outline: as §1

LC-2-ad = test system: LC-2-ad
Outline: as §1

HCC-15 = test system: HCC-15
Outline: as §1

A-427 = test system: A-427
Outline: as §1

SK-LU-1 = test system: SK-LU-1
Outline: as §1

HOP-62 = test system: HOP-62
Outline: as §1

NCI-H358 = test system: NCI-H358
Outline: as §1

LXF-289 = test system: LXF-289
Outline: as §1

NCI-H1915 = test system: NCI-H1915
Outline: as §1

NCI-H1792 = test system: NCI-H1792
Outline: as §1

NCI-H2228 = test system: NCI-H2228
Outline: as §1

NCI-H1734 = test system: NCI-H1734
Outline: as §1

`O=c1cc(-c2cccc3c2Sc2ccccc2S3)oc(N2CCOCC2)c1` + CS(=O)(=O)CCNCc1ccc(-c2ccc3ncnc(Nc4ccc(OCc5cccc(F)c5)c(Cl)c4)c3c2)o1 [Lapatinib] (partner 2 µM) was tested, and the relative viability (HCC-78; first compound 0.08 µM) was 0.873, the relative viability (HCC-78; first compound 0.253 µM) was 0.822 and the relative viability (HCC-78; first compound 0.8 µM) was 0.718. The relative viability (HCC-78; first compound 2.53 µM) was 0.735, the relative viability (HCC-78; first compound 8 µM) was 0.901 and the relative viability (SW 1573; first compound 0.08 µM) was 1.02. It also gave a relative viability (SW 1573; first compound 0.253 µM) of 1.28, a relative viability (SW 1573; first compound 0.8 µM) of 0.935 and a relative viability (SW 1573; first compound 2.53 µM) of 1.05. It also gave a relative viability (SW 1573; first compound 8 µM) of 1.24, a relative viability (RERF-LC-KJ; first compound 0.08 µM) of 0.836 and a relative viability (RERF-LC-KJ; first compound 0.253 µM) of 0.998. It also gave a relative viability (RERF-LC-KJ; first compound 0.8 µM) of 0.876, a relative viability (RERF-LC-KJ; first compound 2.53 µM) of 0.907 and a relative viability (RERF-LC-KJ; first compound 8 µM) of 0.98. The relative viability (NCI-H1755; first compound 0.08 µM) was 1.09, the relative viability (NCI-H1755; first compound 0.253 µM) was 1.06 and the relative viability (NCI-H1755; first compound 0.8 µM) was 1.15. For the same compound, the relative viability (NCI-H1755; first compound 2.53 µM) was 1.03, the relative viability (NCI-H1755; first compound 8 µM) was 1.08 and the relative viability (NCI-H1975; first compound 0.08 µM) was 0.827. For the same compound, the relative viability (NCI-H1975; first compound 0.253 µM) was 1.06, the relative viability (NCI-H1975; first compound 0.8 µM) was 0.894 and the relative viability (NCI-H1975; first compound 2.53 µM) was 0.794. It also gave a relative viability (NCI-H1975; first compound 8 µM) of 0.973, a relative viability (NCI-H2347; first compound 0.08 µM) of 0.978 and a relative viability (NCI-H2347; first compound 0.253 µM) of 1.09. The relative viability (NCI-H2347; first compound 0.8 µM) was 1.02, the relative viability (NCI-H2347; first compound 2.53 µM) was 1.04 and the relative viability (NCI-H2347; first compound 8 µM) was 1.19. The relative viability (PC-3 [JPC-3]; first compound 0.08 µM) was 0.44, the relative viability (PC-3 [JPC-3]; first compound 0.253 µM) was 0.497 and the relative viability (PC-3 [JPC-3]; first compound 0.8 µM) was 0.435. The relative viability (PC-3 [JPC-3]; first compound 2.53 µM) was 0.437, the relative viability (PC-3 [JPC-3]; first compound 8 µM) was 0.532 and the relative viability (NCI-H2126; first compound 0.08 µM) was 0.715. For the same compound, the relative viability (NCI-H2126; first compound 0.253 µM) was 0.801, the relative viability (NCI-H2126; first compound 0.8 µM) was 0.679 and the relative viability (NCI-H2126; first compound 2.53 µM) was 0.679. The relative viability (NCI-H2126; first compound 8 µM) was 0.796, the relative viability (NCI-H647; first compound 0.08 µM) was 1.19 and the relative viability (NCI-H647; first compound 0.253 µM) was 1.21. For the same compound, the relative viability (NCI-H647; first compound 0.8 µM) was 0.985, the relative viability (NCI-H647; first compound 2.53 µM) was 0.886 and the relative viability (NCI-H647; first compound 8 µM) was 0.83. The relative viability (LC-2-ad; first compound 0.08 µM) was 0.963, the relative viability (LC-2-ad; first compound 0.253 µM) was 1.04 and the relative viability (LC-2-ad; first compound 0.8 µM) was 1.06. The relative viability (LC-2-ad; first compound 2.53 µM) was 0.921, the relative viability (LC-2-ad; first compound 8 µM) was 0.956 and the relative viability (HCC-15; first compound 0.08 µM) was 0.885. For the same compound, the relative viability (HCC-15; first compound 0.253 µM) was 1.02, the relative viability (HCC-15; first compound 0.8 µM) was 0.873 and the relative viability (HCC-15; first compound 2.53 µM) was 0.82. It also gave a relative viability (HCC-15; first compound 8 µM) of 0.988, a relative viability (A-427; first compound 0.08 µM) of 1.06 and a relative viability (A-427; first compound 0.253 µM) of 1.05. The relative viability (A-427; first compound 0.8 µM) was 1.08, the relative viability (A-427; first compound 2.53 µM) was 0.868 and the relative viability (A-427; first compound 8 µM) was 1.12. For the same compound, the relative viability (SK-LU-1; first compound 0.08 µM) was 1.02, the relative viability (SK-LU-1; first compound 0.253 µM) was 0.858 and the relative viability (SK-LU-1; first compound 0.8 µM) was 0.968. The relative viability (SK-LU-1; first compound 2.53 µM) was 0.817, the relative viability (SK-LU-1; first compound 8 µM) was 0.836 and the relative viability (HOP-62; first compound 0.08 µM) was 0.829. For the same compound, the relative viability (HOP-62; first compound 0.253 µM) was 1.08, the relative viability (HOP-62; first compound 0.8 µM) was 1.13 and the relative viability (HOP-62; first compound 2.53 µM) was 0.727. For the same compound, the relative viability (HOP-62; first compound 8 µM) was 1.07, the relative viability (NCI-H358; first compound 0.08 µM) was 0.407 and the relative viability (NCI-H358; first compound 0.253 µM) was 0.392. The relative viability (NCI-H358; first compound 0.8 µM) was 0.42, the relative viability (NCI-H358; first compound 2.53 µM) was 0.424 and the relative viability (NCI-H358; first compound 8 µM) was 0.467. For the same compound, the relative viability (LXF-289; first compound 0.08 µM) was 0.87, the relative viability (LXF-289; first compound 0.253 µM) was 0.935 and the relative viability (LXF-289; first compound 0.8 µM) was 0.942. It also gave a relative viability (LXF-289; first compound 2.53 µM) of 0.856, a relative viability (LXF-289; first compound 8 µM) of 0.93 and a relative viability (NCI-H1915; first compound 0.08 µM) of 1.02. For the same compound, the relative viability (NCI-H1915; first compound 0.253 µM) was 1.04, the relative viability (NCI-H1915; first compound 0.8 µM) was 1.13 and the relative viability (NCI-H1915; first compound 2.53 µM) was 0.905. It also gave a relative viability (NCI-H1915; first compound 8 µM) of 1.06, a relative viability (NCI-H1792; first compound 0.253 µM) of 1 and a relative viability (NCI-H1792; first compound 0.8 µM) of 0.824. It also gave a relative viability (NCI-H1792; first compound 2.53 µM) of 0.83, a relative viability (NCI-H1792; first compound 8 µM) of 1.58 and a relative viability (NCI-H2228; first compound 0.08 µM) of 1.02. It also gave a relative viability (NCI-H2228; first compound 0.253 µM) of 1.5, a relative viability (NCI-H2228; first compound 0.8 µM) of 0.912 and a relative viability (NCI-H2228; first compound 2.53 µM) of 0.891. For the same compound, the relative viability (NCI-H2228; first compound 8 µM) was 1.1, the relative viability (NCI-H1734; first compound 0.08 µM) was 1.07 and the relative viability (NCI-H1734; first compound 0.253 µM) was 1.55. For the same compound, the relative viability (NCI-H1734; first compound 0.8 µM) was 1.12, the relative viability (NCI-H1734; first compound 2.53 µM) was 0.79 and the relative viability (NCI-H1734; first compound 8 µM) was 1.51.
